pIC50: −log10 of the molar value.
target: hOGG1 (Homo sapiens, UniProt O15527); assay: Biochemical fluorescence assay to measure enzymatic activity of hOGG1 (OGG1/APEX IC50); set-up: Protein His-hOGG1 (12-323) was prepared; His (N); host or cells: E. coli; details: 1 nM OGG1+2 nM APEX+6 nM dsDNA (8-oxo-dG substrate); pH 7.5; RT 40 min; read-out: OGG1/APEX IC50
Description: Biological Example 1: Biochemical Assay to Measure Enzymatic Activity of hOGG1 (OGG1/APEX IC50)
The reported fluorescence-based assay (Donley et al ACS Chem Biol 2015; 10 (10), 2334-2343) was modified to include hAPE1/APEX1 protein. The oligonucleotide substrate with 8-oxo-dG lesion at X was prepared (LGC Biosearch, Petaluma, CA):
Protein His-hOGG1 (12-323) was prepared by Chempartner Corporation via E. coliexpression and purification by Ni-NTA and S200 column to afford 95% purity by SDS-PAGE and SEC-HPLC analysis and hAPE1/APEX1 was purchased (SinoBiological). The assay was run in 384-well plates following the general procedure: (1) compound dilution; (2) addition of hOGG1/APEX1 to compound wells; (3) addition of DNA substrate to compound wells; (4) read Ex520/Em600 (TAMRA) fluorescence signal after 40 minutes; (5) calculate % inhibition/compound concentration; (6) calculate dose-response curve and IC50 value.
• (1) 20 mM of compound solution was prepared in DMSO; • (2) Compounds were diluted to 10 mM in DMSO in ECHO Source plate (Labcyte PP-0200), by mixing […] DMSO; • (3) 4× dilution of compounds, for 10 points, by mixing […] DMSO; and • (4) Dispensed 150 nL compounds to assay plate (Corning 3573) in column 3-22. Dispensed 150 nL DMSO to Min and Max control wells in column 1-2 and column 23-24.
• (1) Assay buffer was prepared (20 mM Tris pH 7.5, 100 mM KCl, 0.1% BSA, 0.01% Tween). • (2) […] buffer was added to Min control wells (Column 1-2). • (3) Enzyme was diluted to 2× with buffer (2 nM OGG1+4 nM APEX1). Dispensed […] (except Min control wells). Shake at 500 rpm at RT for 20 min. • (4) DNA substrate diluted to 2× with buffer (12 nM). Dispensed […]. Final concentration: 1 nM OGG1+2 nM APEX+6 nM dsDNA. Shake at RT for 40 min. • (5) Ex520/Em600 (TAMRA) was read.
• (1) Calculated respective mean of Max and Min control wells. • (2) Converted data to percentage inhibition.
Inhibition (%)=(Max mean−value)/(Max mean−Min mean)×100% • (3) Calculated sigmoidal curve (3-parameter) and IC50 (using GraphPad Prism software).

Sequence of hOGG1 (O15527 12-323): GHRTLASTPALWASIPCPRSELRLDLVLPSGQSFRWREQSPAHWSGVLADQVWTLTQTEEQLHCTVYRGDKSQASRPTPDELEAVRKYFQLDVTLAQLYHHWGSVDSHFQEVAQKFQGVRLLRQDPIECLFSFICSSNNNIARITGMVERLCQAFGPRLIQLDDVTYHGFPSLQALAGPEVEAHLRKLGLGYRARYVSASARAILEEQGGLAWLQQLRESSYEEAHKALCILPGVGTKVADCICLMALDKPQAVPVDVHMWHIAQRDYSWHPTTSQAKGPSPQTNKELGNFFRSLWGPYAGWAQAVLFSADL

Row | pIC50 | SMILES
1 | > 7.00 | COc1ccc(NC(=O)[C@H]2CC[C@@H](N3Cc4c(C)cccc4NC3=O)CC2)cc1C#N [Example 86, (1s,4s)-N-(3-cyano-4-methoxyphenyl)-4-(5-methyl-2-oxo-1,2-dihydroquinazolin-3(4H)-yl)cyclohexanecarboxamide]
2 | > 7.00 | COc1ccc(NC(=O)[C@H]2CC[C@@H](N3Cc4c(C)cccc4NC3=O)CC2)cc1Cl [Example 88, (1s,4s)-N-(3-chloro-4-methoxyphenyl)-4-(5-methyl-2-oxo-1,2-dihydroquinazolin-3(4H)-yl)cyclohexanecarboxamide]
3 | 6.00 to 7.00 | COc1ccc(NC(=O)[C@H]2CC[C@@H](N3Cc4c(C)cccc4NC3=O)CC2)cc1F [Example 89, (1s,4s)-N-(3-fluoro-4-methoxyphenyl)-4-(5-methyl-2-oxo-1,2-dihydroquinazolin-3(4H)-yl)cyclohexanecarboxamide]
4 | 6.00 to 7.00 | CCc1ccc(NC(=O)[C@H]2CC[C@@H](N3Cc4c(C)cccc4C3=O)CC2)cc1OC [Example 123, (1s,4s)-N-(4-Ethyl-3-methoxyphenyl)-4-(4-methyl-1-oxoisoindolin-2-yl)cyclohexane-1-carboxamide]
5 | 5.00 to 6.00 | Cc1ccc(NC(=O)[C@H]2CC[C@@H](N3Cc4c(C)cccc4C3=O)CC2)c(O)c1 [Example 230, (1s,4s)-N-(2-Hydroxy-4-methylphenyl)-4-(4-methyl-1-oxoisoindolin-2-yl)cyclohexanecarboxamide]
6 | < 5.00 | COc1cc(NC(=O)[C@H]2CC[C@@H](N3Cc4c(cccc4C4CCC4)C3=O)CC2)ccc1C [Example 152, (1s,4s)-4-(4-Cyclobutyl-1-oxoisoindolin-2-yl)-N-(3-methoxy-4-methylphenyl)cyclohexanecarboxamide]
7 | < 5.00 | C=C(C)c1cccc2c1CN([C@H]1CC[C@@H](C(=O)Nc3ccc(C)c(OC)c3)CC1)C2=O [Example 157, (1s,4s)-N-(3-Methoxy-4-methylphenyl)-4-(1-oxo-4-(prop-1-en-2-yl)isoindolin-2-yl)cyclohexanecarboxamide]
8 | 6.00 to 7.00 | COc1cc(NC(=O)[C@H]2CC[C@@H](N3Cc4c(C)cc(C(=O)O)cc4C3=O)CC2)ccc1C [Example 211, 2-((1s,4s)-4-(3-Methoxy-4-methylphenylcarbamoyl)cyclohexyl)-7-methyl-3-oxoisoindoline-5-carboxylic Acid]
9 | > 7.00 | COc1cc(NC(=O)[C@H]2CC[C@@H](N3Cc4c(C)ccc(Br)c4NC3=O)CC2)ccc1C [Example 62, (1s,4s)-4-(8-Bromo-5-methyl-2-oxo-1,2-dihydroquinazolin-3(4H)-yl)-N-(3-methoxy-4-methylphenyl)cyclohexanecarboxamide]
10 | 6.00 to 7.00 | Cc1ccc(NC(=O)[C@H]2CC[C@@H](N3Cc4c(C)cccc4C3=O)CC2)cc1C#N [Example 254, (1s,4s)-N-(3-Cyano-4-methylphenyl)-4-(4-methyl-1-oxoisoindolin-2-yl)cyclohexanecarboxamide]
11 | < 5.00 | COc1cc(NC(=O)[C@H]2CC[C@@H](N3Cc4c(CN)cccc4C3=O)CC2)ccc1C [Example 134, (1s,4s)-4-(4-(aminomethyl)-1-oxoisoindolin-2-yl)-N-(3-methoxy-4-methylphenyl)cyclohexane-1-carboxamide]
12 | 6.00 to 7.00 | C=Cc1cccc2c1CN([C@H]1CC[C@@H](C(=O)Nc3ccc(C)c(OC)c3)CC1)C2=O [Example 155, (1s,4s)-N-(3-Methoxy-4-methylphenyl)-4-(1-oxo-4-vinylisoindolin-2-yl)cyclohexanecarboxamide]

Second part, the compound before the results:

Row | SMILES | pIC50
13 | COc1cc(NC(=O)[C@@H]2CC[C@@H](N3Cc4c(C)cc(Br)cc4NC3=O)C2)ccc1C [Example 36, (1R,3R)-3-(7-Bromo-5-methyl-2-oxo-1,2-dihydroquinazolin-3(4H)-yl)-N-(3-methoxy-4-methylphenyl)cyclopentanecarboxamide] | 5.00 to 6.00
14 | CCc1ccc(NC(=O)[C@H]2CC[C@@H](N3Cc4c(C)cccc4NC3=O)CC2)cc1C [Example 93, (1s,4s)-N-(4-ethyl-3-methylphenyl)-4-(5-methyl-2-oxo-1,2-dihydroquinazolin-3(4H)-yl)cyclohexanecarboxamide] | 6.00 to 7.00
15 | CNCCOc1cc(C)c2c(c1)C(=O)N([C@H]1CC[C@@H](C(=O)Nc3ccc(C)c(OC)c3)CC1)C2 [Example 266, (1s,4s)-N-(3-Methoxy-4-methylphenyl)-4-(4-methyl-6-(2-(methylamino)ethoxy)-1-oxoisoindolin-2-yl)cyclohexanecarboxamide] | > 7.00
16 | COc1cc(NC(=O)[C@H]2CC[C@@H](N3Cc4c(C)cc(Br)cc4NC3=O)CC2)ccc1C [Example 74, (1s,4s)-4-(7-bromo-5-methyl-2-oxo-1,2-dihydroquinazolin-3(4H)-yl)-N-(3-methoxy-4-methylphenyl)cyclohexanecarboxamide] | 6.00 to 7.00
17 | COc1cc(NC(=O)[C@H]2CC[C@@H](N3Cc4c(Br)cc(NC(=O)CCN(C)C)cc4C3=O)CC2)ccc1C [Example 204, (1s,4s)-4-(4-Bromo-6-(3-(dimethylamino)propanamido)-1-oxoisoindolin-2-yl)-N-(3-methoxy-4-methylphenyl)cyclohexanecarboxamide] | > 7.00
18 | COc1cc(NC(=O)[C@H]2CC[C@@H](N3Cc4c(C)cc(OCc5ncc[nH]5)cc4C3=O)CC2)ccc1C [Example 226, (1s,4s)-4-(6-((1H-Imidazol-2-yl)methoxy)-4-methyl-1-oxoisoindolin-2-yl)-N-(3-methoxy-4-methylphenyl)cyclohexanecarboxamide] | 6.00 to 7.00
19 | COc1ccc(NC(=O)[C@]2(C)CC[C@H](N3Cc4c(C)cccc4NC3=O)CC2)cc1C (single isomer, unassigned) [Example 105, (1s,4s)-N-(4-methoxy-3-methylphenyl)-1-methyl-4-(5-methyl-2-oxo-1,2-dihydroquinazolin-3(4H)-yl)cyclohexanecarboxamide] | > 7.00
20 | COc1cc(NC(=O)[C@H]2CC[C@@H](N3Cc4c(C)cc(C#N)cc4NC3=O)CC2)ccc1C [Example 31, (1s,4s)-4-(7-Cyano-5-methyl-2-oxo-1,2-dihydroquinazolin-3(4H)-yl)-N-(3-methoxy-4-methylphenyl)cyclohexanecarboxamide] | > 7.00
21 | COc1cc(NC(=O)[C@H]2CC[C@@H](N3Cc4c(C)cc(C5COC5)cc4NC3=O)CC2)ccc1C [Example 33, (1s,4s)-N-(3-Methoxy-4-methylphenyl)-4-(5-methyl-7-(oxetan-3-yl)-2-oxo-1,2-dihydroquinazolin-3(4H)-yl)cyclohexanecarboxamide] | > 7.00
22 | COc1ccc(NC(=O)[C@]2(C)CC[C@@H](N3Cc4c(C)cccc4NC3=O)CC2)cc1C (single isomer, unassigned) [Example 106, (1r,4r)-N-(4-methoxy-3-methylphenyl)-1-methyl-4-(5-methyl-2-oxo-1,2-dihydroquinazolin-3(4H)-yl)cyclohexanecarboxamide] | 5.00 to 6.00
23 | COc1cc(NC(=O)[C@]2(C)CC[C@H](N3Cc4c(C)cccc4NC3=O)CC2)ccc1C (single isomer, unassigned) [Example 101, (1s,4s)-N-(3-methoxy-4-methylphenyl)-1-methyl-4-(5-methyl-2-oxo-1,2-dihydroquinazolin-3(4H)-yl)cyclohexanecarboxamide] | > 7.00

Reference: patent US20260317356A1, “SMALL MOLECULE MODULATORS OF OGG1” (AZKARRA THERAPEUTICS, INC., priority 2023, published 2026)
